Assay results as given in paper PMC8333062, “Chemical tools for epichaperome-mediated interactome dysfunctions of the central nervous system” (Nature Communications, 2021).
Several values for one entry are separate records, joined by “and”; a condition that tells them apart may be missing. Equal values may be shown once.

Assays:
[1] = LC/MS-MS tissue concentration 48 h after 75 mg kg-1 ip; format: in vivo; conditions: mouse, MDA-MB-468 tumor, intraperitoneal, 75 mg kg^−1, 48 h post 75mg/kg ip, mouse 1-4; read-out: [PU-HZ151] MDA-MB-468 TUMOR
[2] = system: MDA-MB-468 tumor and organs; test: as above; format: in vivo; conditions: 48 h post 75mg/kg ip, mouse 1-4; listed as PU-HZ151
CYP3A = test: Cytochrome P450 profiling, ketoconazole; format: in vitro ADME, human; conditions: for % PU-HZ151 remaining: Ketoconazole
Procedure: (§1) To identify cytochrome P450 enzymes responsible for PU-HZ151’s metabolism in human liver microsomes the following procedure was followed. Phosphate buffer (100 mM, pH 7.4) was prepared monthly and stored at 4 °C. Frozen stock solutions of human liver microsomes (Life Technologies; Cat# HMMCPL) were used once after thawing and were not refrozen. NADPH stock solution (50 mM) in distilled water was prepared fresh daily. […] The stock solutions of these P450 inhibitors were prepared in DMSO. […] The concentration of the chemical inhibitors used in the assay were furafylline (10 μM), tranylcypromine (2 μM), ketoconazole (1 μM), troleandomycin (20 μM), orphenadrine (50 μM), montelukast (3 μM), sulfaphenazole (10 μM), benzylnirvanol (1 μM), quinidine (1 μM), and 1-aminobenzotriazole (1 mM) for all the P450 enzymes. Timing of the reactions was started following the addition of NADPH/magnesium chloride mix and PU-HZ151. Time-dependent chemical inhibitors (furafylline, troleandomycin, orphenadrine, and 1-aminobenzotriazole) were preincubated with human microsomes in the presence of NADPH and magnesium chloride for 15 min before the addition of PU-HZ151 and timing of reactions was started after addition of PU-HZ151. […] Following brief vortexing and centrifugation, a 200 µL aliquot of the supernatant was transferred to a tube, and 10 µL of haloperidol (1 µg mL^−1) as internal standard was added. Following brief vortexing and centrifugation, 50 µL of supernatant was added to a 96-well plate for subsequent LC-MS/MS analysis. PU-HZ151 was similarly tested as above in the absence of CYP inhibitors for comparative purposes. All samples were assayed in duplicate. […] This was similarly performed for incubations of PU-HZ151 performed in the absence of CYP inhibitor.

CYP2B6 = biological target: T1, CYP2B6 (Homo sapiens, UniProt P20813); test: Cytochrome P450 profiling, orphenadrine; format: in vitro ADME; conditions: for % PU-HZ151 remaining: Orphenadrine
T1 construct: tissue Life Technologies HMMCPL; host or cells: human liver microsomes
T1 sequence (P20813 1-491): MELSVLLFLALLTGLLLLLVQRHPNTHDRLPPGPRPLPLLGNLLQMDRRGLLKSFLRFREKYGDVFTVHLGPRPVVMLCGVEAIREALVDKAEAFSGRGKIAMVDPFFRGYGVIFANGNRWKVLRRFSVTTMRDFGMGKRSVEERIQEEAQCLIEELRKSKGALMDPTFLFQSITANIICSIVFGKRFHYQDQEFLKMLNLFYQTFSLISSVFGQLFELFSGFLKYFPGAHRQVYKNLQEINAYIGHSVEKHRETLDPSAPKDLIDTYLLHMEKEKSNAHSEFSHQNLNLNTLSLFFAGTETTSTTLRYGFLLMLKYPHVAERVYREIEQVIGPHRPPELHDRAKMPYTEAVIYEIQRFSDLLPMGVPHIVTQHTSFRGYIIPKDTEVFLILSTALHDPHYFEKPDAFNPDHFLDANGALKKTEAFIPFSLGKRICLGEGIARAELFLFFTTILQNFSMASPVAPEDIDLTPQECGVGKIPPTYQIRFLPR
Procedure: as §1

CYP2D6 = biological target: T2, CYP2D6 (Homo sapiens, UniProt P10635); test: Cytochrome P450 profiling, quinidine; format: in vitro ADME; conditions: for % PU-HZ151 remaining: Quinidine
T2 construct: tissue Life Technologies HMMCPL; host or cells: human liver microsomes
T2 sequence (P10635 whole entry): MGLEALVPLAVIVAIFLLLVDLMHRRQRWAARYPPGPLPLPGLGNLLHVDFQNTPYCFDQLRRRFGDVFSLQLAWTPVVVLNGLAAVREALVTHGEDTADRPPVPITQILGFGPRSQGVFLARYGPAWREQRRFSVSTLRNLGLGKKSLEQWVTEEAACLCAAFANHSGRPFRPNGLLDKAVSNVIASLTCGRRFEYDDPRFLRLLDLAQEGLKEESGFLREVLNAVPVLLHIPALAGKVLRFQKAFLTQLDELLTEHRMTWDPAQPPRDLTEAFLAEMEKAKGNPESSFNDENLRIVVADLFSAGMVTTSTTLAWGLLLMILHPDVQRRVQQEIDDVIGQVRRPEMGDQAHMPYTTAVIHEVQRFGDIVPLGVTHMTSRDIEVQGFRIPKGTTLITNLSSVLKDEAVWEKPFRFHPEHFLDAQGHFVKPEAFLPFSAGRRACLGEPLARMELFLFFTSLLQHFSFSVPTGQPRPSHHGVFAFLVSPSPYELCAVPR
Procedure: as §1

[3] = biological target: T3, 70 key receptor, enzyme, and ion channel proteins (Homo sapiens, UniProt P08173); test: General side effect profile (SEP) II diversity panel; format: binding; conditions: 1.0E-5 M
T3 construct: purchased Caliper Life Sciences (now PerkinElmer), NOVASCREEN General SEP II
T3 sequence (P08173 whole entry): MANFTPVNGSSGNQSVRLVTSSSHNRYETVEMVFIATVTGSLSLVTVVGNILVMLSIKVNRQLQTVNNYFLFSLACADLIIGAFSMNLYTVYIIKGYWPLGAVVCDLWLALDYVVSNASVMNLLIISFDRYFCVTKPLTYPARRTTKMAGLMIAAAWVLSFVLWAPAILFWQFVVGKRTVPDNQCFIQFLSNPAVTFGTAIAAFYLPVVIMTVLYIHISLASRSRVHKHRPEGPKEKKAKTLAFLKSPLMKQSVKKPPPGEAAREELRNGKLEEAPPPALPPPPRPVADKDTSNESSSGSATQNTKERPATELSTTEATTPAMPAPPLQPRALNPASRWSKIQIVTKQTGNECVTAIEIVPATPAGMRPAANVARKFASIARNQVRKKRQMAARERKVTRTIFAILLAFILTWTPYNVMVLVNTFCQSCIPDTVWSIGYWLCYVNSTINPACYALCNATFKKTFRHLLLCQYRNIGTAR

[4] = biological target: 70 key receptor, enzyme, and ion channel proteins (Homo sapiens, UniProt P11229); test: as above; format: binding
Chain of 70 key receptor, enzyme, and ion channel proteins (Homo sapiens, UniProt P11229) (P11229 whole entry): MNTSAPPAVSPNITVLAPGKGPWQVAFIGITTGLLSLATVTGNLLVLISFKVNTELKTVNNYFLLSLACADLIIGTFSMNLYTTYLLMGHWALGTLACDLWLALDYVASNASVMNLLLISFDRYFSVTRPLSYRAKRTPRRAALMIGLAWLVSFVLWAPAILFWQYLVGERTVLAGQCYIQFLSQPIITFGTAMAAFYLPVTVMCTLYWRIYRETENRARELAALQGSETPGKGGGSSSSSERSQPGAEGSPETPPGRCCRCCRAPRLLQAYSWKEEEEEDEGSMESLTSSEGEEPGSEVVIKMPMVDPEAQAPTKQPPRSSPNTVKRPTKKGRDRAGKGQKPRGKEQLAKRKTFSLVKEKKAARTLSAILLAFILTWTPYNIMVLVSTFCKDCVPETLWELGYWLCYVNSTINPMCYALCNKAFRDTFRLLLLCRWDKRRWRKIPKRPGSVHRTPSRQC

[5] = biological target: 70 key receptor, enzyme, and ion channel proteins (Homo sapiens, UniProt P41143); test: as above; format: binding
Chain of 70 key receptor, enzyme, and ion channel proteins (Homo sapiens, UniProt P41143) (P41143 whole entry): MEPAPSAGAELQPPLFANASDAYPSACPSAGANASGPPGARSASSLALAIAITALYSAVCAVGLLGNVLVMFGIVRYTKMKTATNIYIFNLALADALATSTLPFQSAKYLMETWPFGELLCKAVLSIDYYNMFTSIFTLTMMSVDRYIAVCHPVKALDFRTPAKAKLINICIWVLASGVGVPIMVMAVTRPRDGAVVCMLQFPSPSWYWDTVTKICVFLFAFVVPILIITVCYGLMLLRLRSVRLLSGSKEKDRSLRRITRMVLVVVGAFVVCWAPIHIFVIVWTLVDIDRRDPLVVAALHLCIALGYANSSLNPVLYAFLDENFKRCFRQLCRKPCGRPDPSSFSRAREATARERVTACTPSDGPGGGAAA

[6] = system: 70 key receptor, enzyme, and ion channel proteins; test: as above; format: binding; conditions: 1.0E-5 M

CC(C)(C)CNCCn1c(Sc2cc3c(cc2I)OCO3)nc2c(N)ncnc21 [Compound 85]
concentration at 48 h [1]: 1670 nM | [PU-HZ151] Liver [2]: 0.002 µM | [PU-HZ151] MDA-MB-468 TUMOR [2]: 1.786 µM and 1.509 µM and 1.067 µM | % PU-HZ151 remaining (CYP3A; 15 min): 76.5% | % PU-HZ151 remaining (CYP3A; 30 min): 63.5% | % PU-HZ151 remaining (CYP3A; 60 min): 50.6% | inhibition of PU-HZ151 metabolism (CYP3A; ketoconazole): 40% | % PU-HZ151 remaining (CYP2B6; 15 min): 62% | % PU-HZ151 remaining (CYP2B6; 30 min): 42.7% | % PU-HZ151 remaining (CYP2B6; 60 min): 25.6% | inhibition of PU-HZ151 metabolism (CYP2B6; orphenadrine): 10% | % PU-HZ151 remaining (CYP2D6; 15 min): 62.9% | % PU-HZ151 remaining (CYP2D6; 30 min): 43.9% | % PU-HZ151 remaining (CYP2D6; 60 min): 26.6% | inhibition of PU-HZ151 metabolism (CYP2D6; quinidine): 11% | Percent Inhibition: Muscarinic, M4 (h) [3]: 27.60% | Percent Inhibition: Muscarinic, Ml (hr) [4]: 26.84% | Percent Inhibition: Opioid, Delta 2 (h) [5]: 20.37% | Percent Inhibition: Adenosine, Al [6]: 14.00% | Percent Inhibition: Adrenergic, Alpha 1B [6]: 27.43% | Percent Inhibition: Adrenergic, Alpha 2A (h) [6]: -1.92% | Percent Inhibition: Adrenergic, Alpha 2B [6]: 10.67% | Percent Inhibition: Adrenergic, Alpha 2C (h) [6]: 15.07% | Percent Inhibition: Adrenergic, Alpha lA [6]: 12.17% | Percent Inhibition: Angiotensin II, ATl (h) [6]: 0.36% | Percent Inhibition: Bradykinin, BK2 [6]: 10.14% | Percent Inhibition: Calcium Channel, Type N [6]: -11.15% | Percent Inhibition: Dopamine Transporter [6]: -12.87% | Percent Inhibition: Dopamine, D2s (h) [6]: 20.57% | Percent Inhibition: Dopamine, D3 [6]: -6.23% | Percent Inhibition: Esterase, Acetylcholine [6]: 6.63% | Percent Inhibition: GABA A, Agonist Site [6]: 33.91% | Percent Inhibition: GABA A, BDZ, alpha 1 site [6]: 18.61% | Percent Inhibition: GABA, Chloride, TBOB Site [6]: -28.46% | Percent Inhibition: GABA-B [6]: 18.61% | Percent Inhibition: Glutamate, AMPA Site (Ionotropic) [6]: 8.62% | Percent Inhibition: Glutamate, Kainate Site (Ionotropic) [6]: -7.63% | Percent Inhibition: Glutamate, MK-801 Site (Ionotropic) [6]: -0.50% | Percent Inhibition: Glutamate, NMDA Agonist Site (Ionotropic) [6]: 23.69% | Percent Inhibition: Glutamate, NMDA, Phencyclidine Site (Ionotropic) [6]: 6.26% | Percent Inhibition: Glutamate,NMDA,Glycine (Stry-insens Site) [6]: -0.97% | Percent Inhibition: Glycine, Strychnine-sensitive [6]: -19.46% | Percent Inhibition: Histamine, H2 [6]: 40.98% | Percent Inhibition: Histamine, H3 [6]: 22.25% | Percent Inhibition: Histamine, Hl [6]: 5.94% | Percent Inhibition: Leukotriene, LTB4 (BLT) [6]: 22.06% | Percent Inhibition: Leukotriene, LTD4 (CysLTl) [6]: 28.77% | Percent Inhibition: Neurokinin, NKl [6]: 20.40% | Percent Inhibition: Nicotinic, Neuronal (a-BnTx insensitive) [6]: -17.51% | Percent Inhibition: Nitric Oxide, NOS (Neuronal-Binding) [6]: -1.73% | Percent Inhibition: Norepinephrine Transporter [6]: 5.73% | Percent Inhibition: Phosphodiesterase, PDE4A1A (h) [6]: 14.00% | Percent Inhibition: Potassium Channel, ATP-Sensitive [6]: -1.01% | Percent Inhibition: Potassium Channel, Ca2+ Act., VI [6]: 18.66% | Percent Inhibition: Serotonin Transporter [6]: 5.96% | Percent Inhibition: Serotonin, 5HT1D [6]: 5.13% | Percent Inhibition: Serotonin, 5HT2A [6]: 8.50% | Percent Inhibition: Serotonin, 5HT2C [6]: 12.77% | Percent Inhibition: Serotonin, 5HT3 [6]: 6.61% | Percent Inhibition: Serotonin, 5HT4 [6]: 36.08% | Percent Inhibition: Sigma 2 [6]: -0.71% | Percent Inhibition: Sodium, Site 2 [6]: 14.53%
